The test concerns the target one or more of HDAC-4, HDAC-5, HDAC-6, HDAC-7, HDAC-8, HDAC-9, HDAC-10 and HDAC-11. Briefly: Inhibition of histone deacetylase enzymatic activity (summary statement over isoforms). In kind it is biochemical. The settings on record: Table 3, selected examples; HDAC isoform not given. The method in brief: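 Activity was measured as deacetylation of the fluorogenic substrate Boc-Lys(trifluoroacetyl)-AMC over 20-30 min at 37 °C, after a 5 min room-temperature preincubation of enzyme with compound. Trypsin (1 mg/mL) with a reference HDAC inhibitor ended the reaction.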

As a reminder, the IC50 is the midpoint of a concentration-inhibition curve. Lower therefore signals inhibition by little substance.

`Cc1cccc(C(C(=O)NO)c2ccc(N3CCOCC3)cc2)c1` (stereo not shown) [Compound 5-125, N-hydroxy-2-(4-morpholinophenyl)-2-m-tolylacetamide]: the half-inhibitory concentration (IC50) was less than 1000 nM.
For `O=C(NO)C(c1ccccc1)C1CCN(c2ncccn2)CC1` (stereo not shown) [Compound 5-126, N-hydroxy-2-phenyl-2-(1-(pyrimidin-2-yl)piperidin-4-yl)acetamide] the value was 1000 to 15000 nM; for `O=C(NO)C(c1ccccc1)C1CCN(C(=O)c2ccccc2)CC1` (stereo not shown) [Compound 5-127, 2-(1-benzoylpiperidin-4-yl)-N-hydroxy-2-phenylacetamide], 1000 to 15000 nM; for `CCCC(=O)ONC(=O)C(c1ccccc1)c1ccc(N2CCOCC2)cc1` (stereo not shown) [Compound 5-128, N-(butyryloxy)-2-(4-morpholinophenyl)-2-phenylacetamide], 1000 to 15000 nM.
As for `COc1ccccc1C(C(=O)NO)c1ccc(N2CCOCC2)cc1` (stereo not shown) [Compound 5-129, N-hydroxy-2-(2-methoxyphenyl)-2-(4-morpholinophenyl)acetamide], the figure is 1000 to 15000 nM.
For `O=C(NO)C(c1ccccc1)c1ccc(OC2CCN(CC3CC3)CC2)cc1` (stereo not shown) [Compound 5-130, 2-(4-(1-(cyclopropylmethyl)piperidin-4-yloxy)phenyl)-N-hydroxy-2-phenylacetamide] the value was less than 1000 nM; for `Cc1[nH]c2ccccc2c1CN1CCC(Oc2ccc(C(C(=O)NO)c3ccccc3)cc2)CC1` (stereo not shown) [Compound 5-132, N-hydroxy-2-(4-(1-((2-methyl-1H-indol-3-yl)methyl)piperidin-4-yloxy)phenyl)-2-phenylacetamide], less than 1000 nM; for `O=C(NO)C(c1ccccc1)c1ccc(N2C[C@@H]3C[C@]3(c3ccc(Cl)c(Cl)c3)C2)cc1` (stereo partly drawn) [Compound 6-16, 2-(4-((1S,5R)-1-(3,4-dichlorophenyl)-3-azabicyclo[3.1.0]hexan-3-yl)phenyl)-N-hydroxy-2-phenylacetamide], less than 1000 nM.
As to `O=C(NO)C(c1ccc(N2CCOCC2)cc1)c1ccccc1F` (stereo not shown) [Compound 6-17, 2-(2-fluorophenyl)-N-hydroxy-2-(4-morpholinophenyl)acetamide], the half-inhibitory concentration (IC50) was less than 1000 nM.
In the case of `Cc1ccc(S(=O)(=O)N2CCN(C3(C(=O)NO)CCc4ccccc43)CC2)cc1` (stereo not shown) [Compound 6-18, N-hydroxy-1-(4-(p-tolylsulfonyl)piperazin-1-yl)-2,3-dihydro-1H-indene-1-carboxamide], the IC50 lay within 1000 to 15000 nM.
With `Cc1ccccc1C(C(=O)NO)c1ccc(N2CCOCC2)cc1` (stereo not shown) [Compound 6-19, N-hydroxy-2-(4-morpholionphenyl)-2-o-tolylacetamide], the 50% inhibitory concentration (IC50) is less than 1000 nM.
`O=C(NO)C(c1ccc(N2CCOCC2)cc1)c1cccc(OC(F)(F)F)c1` (stereo not shown) [Compound 6-20, N-hydroxy-2-(4-morpholinophenyl)-2-(3-(trifluoromethoxy)phenyl)acetamide]: the IC50 lay within 1000 to 15000 nM.
As for `O=C(NO)C(c1ccc(N2CCOCC2)cc1)c1cccc(C(F)(F)F)c1` (stereo not shown) [Compound 6-21, N-hydroxy-2-(4-morpholinophenyl)-2-(3-(trifluoromethyl)phenyl)acetamide], the figure is 1000 to 15000 nM; as for `O=C(NO)C(c1ccc(N2CCOCC2)cc1)c1cccc(F)c1F` (stereo not shown) [Compound 6-22], less than 1000 nM; as for `O=C(NO)C(c1ccc(N2CCOCC2)cc1)c1cccc(O)c1` (stereo not shown) [Compound 6-23, N-hydroxy-2-(3-hydroxyphenyl)-2-(4-morpholinophenyl)acetamide], less than 1000 nM.
`O=C(NO)C(c1ccc(N2CCOCC2)cc1)c1c(F)cccc1F` (stereo not shown) [Compound 6-24, 2-(2,6-difluorophenyl)-N-hydroxy-2-(4-morpholinophenyl)acetamide] gave a half-maximal inhibitory concentration (IC50) of 1000 to 15000 nM.
Take `CSc1cccc(C(C(=O)NO)c2ccc(N3CCOCC3)cc2)c1` (stereo not shown) [Compound 6-25, N-hydroxy-2-(3-(methylthio)phenyl)-2-(4-morpholinophenyl)acetamide]: the IC50 is less than 1000 nM.
As for `O=C(NO)C(c1ccc(N2CCOCC2)cc1)c1ccccc1O` (stereo not shown) [Compound 6-26, N-hydroxy-2-(2-hydroxyphenyl)-2-(4-morpholinophenyl)acetamide], the figure is 1000 to 15000 nM; as for `O=C(NO)C(Sc1ncccn1)c1ccccc1` (stereo not shown) [Compound 6-29, N-hydroxy-2-phenyl-2-(pyrimidin-2-ylthio)acetamide], 1000 to 15000 nM.
As for `CCN(CC)c1ccc(C(C(=O)NO)c2cccc(F)c2)cc1` (stereo not shown) [Compound 6-37], the IC50 was less than 1000 nM.
For `O=C(NO)C(Sc1cccc(O)c1)c1ccccc1` (stereo not shown) [Compound 6-38, N-hydroxy-2-(3-hydroxyphenylthio)-2-phenylacetamide] the value was 1000 to 15000 nM; for `O=C(NO)C(c1ccccc1)c1ccc(N2CCC2)cc1` (stereo not shown) [Compound 6-39, 2-(4-(azetidin-1-yl)phenyl)-N-hydroxy-2-phenylacetamide], less than 1000 nM.
Molecule `CN(CCc1ccccc1)c1ccc(C(C(=O)NO)c2ccccc2)cc1` (stereo not shown) [Compound 6-40, N-hydroxy-2-(4-(methyl(phenethyl)amino)phenyl)-2-phenylacetamide] gave an IC50 of less than 1000 nM.
As for `COc1ccc(-c2ccnc(SC(C(=O)NO)c3ccccc3)n2)cc1` (stereo not shown) [Compound 6-42, N-hydroxy-2-(4-(4-methoxyphenyl)pyrimidin-2-ylthio)-2-phenylacetamide], the figure is 1000 to 15000 nM; as for `CCN(CCN(C)C)c1ccc(C(C(=O)NO)c2ccccc2)cc1` (stereo not shown) [Compound 6-43], less than 1000 nM; as for `Cn1cc(C2CCN(C(C(=O)NO)c3ccccc3)CC2)c2ccccc21` (stereo not shown) [Compound 6-45, N-hydroxy-2-(4-(1-methyl-1H-indol-3-yl)piperidin-1-yl)-2-phenylacetamide], less than 1000 nM.
Molecule `CCN(CCOC)c1ccc(C(C(=O)NO)c2ccccc2)cc1` (stereo not shown) [Compound 6-46, 2-(4-(ethyl(2-methoxyethyl)amino)phenyl)-N-hydroxy-2-phenylacetamide] registered an IC50 of less than 1000 nM.
Molecule `Cc1ccccc1OC(C(=O)NO)c1ccccc1` (stereo not shown) [Compound 7-1, N-hydroxy-2-phenyl-2-(o-tolyloxy)acetamide] returned a 50% inhibitory concentration (IC50) of 1000 to 15000 nM.
As for `Cc1cccc(OC(C(=O)NO)c2ccccc2)c1` (stereo not shown) [Compound 7-2, N-hydroxy-2-phenyl-2-(m-tolyloxy)acetamide], the figure is 1000 to 15000 nM.
For `O=C(NO)C(Oc1ccccc1F)c1ccccc1` (stereo not shown) [Compound 7-5, 2-(2-fluorophenoxy)-N-hydroxy-2-phenylacetamide] the value was 1000 to 15000 nM.
As for `COc1ccc(OC(C(=O)NO)c2ccccc2)cc1` (stereo not shown) [Compound 7-11, N-hydroxy-2-(4-methoxyphenoxy)-2-phenylacetamide], the figure is 1000 to 15000 nM; as for `O=C(NO)C(Oc1ccc2c(c1)OCO2)c1ccccc1` (stereo not shown) [Compound 7-17, 2-(benzo[d][1,3]dioxol-5-yloxy)-N-hydroxy-2-phenylacetamide], 1000 to 15000 nM; as for `CSc1ccc(OC(C(=O)NO)c2ccccc2)cc1` (stereo not shown) [Compound 7-18, N-hydroxy-2-(4-(methylthio)phenoxy)-2-phenylacetamide], 1000 to 15000 nM.
Molecule `Cc1ccc(OC(C(=O)NO)c2ccccc2)c(Cl)c1` (stereo not shown) [Compound 7-20, 2-(2-chloro-4-methylphenoxy)-N-hydroxy-2-phenylacetamide] yielded an IC50 of 1000 to 15000 nM.
As for `O=C(NO)C(Oc1cccc2ccccc12)c1ccccc1` (stereo not shown) [Compound 7-31, N-hydroxy-2-(naphthalen-1-yloxy)-2-phenylacetamide], the figure is less than 1000 nM; as for `O=C(NO)C(Oc1ccc(F)cc1Cl)c1ccccc1` (stereo not shown) [Compound 7-33, 2-(2-chloro-4-fluorophenoxy)-N-hydroxy-2-phenylacetamide], 1000 to 15000 nM.
As for `O=C(NO)C(Oc1ccc(F)c(Cl)c1)c1ccccc1` (stereo not shown) [Compound 7-34, 2-(3-chloro-4-fluorophenoxy)-N-hydroxy-2-phenylacetamide], the figure is 1000 to 15000 nM.
`Cc1ccc(OC(C(=O)NO)c2ccccc2)c2c1CCC2` (stereo not shown) [Compound 7-35, N-hydroxy-2-(7-methyl-2,3-dihydro-1H-inden-4-yloxy)-2-phenylacetamide] returned an IC50 of 1000 to 15000 nM.
As for `O=C(NO)C(Oc1ccc2c(c1)CCCC2)c1ccccc1` (stereo not shown) [Compound 7-36, N-hydroxy-2-phenyl-2-(5,6,7,8-tetrahydronaphthalen-2-yloxy)acetamide], the figure is 1000 to 15000 nM.
As for `CC(C)(C)c1ccc(OC(C(=O)NO)c2ccccc2)cc1` (stereo not shown) [Compound 7-37, 2-(4-tert-butylphenoxy)-N-hydroxy-2-phenylacetamide], the figure is 1000 to 15000 nM; as for `CCCOc1ccc(OC(C(=O)NO)c2ccccc2)cc1` (stereo not shown) [Compound 7-41, N-hydroxy-2-phenyl-2-(4-propoxyphenoxy)acetamide], 1000 to 15000 nM; as for `COc1ccc(OC(C(=O)NO)c2ccccc2)cc1OC` (stereo not shown) [Compound 7-42, 2-(3,4-dimethoxyphenoxy)-N-hydroxy-2-phenylacetamide], 1000 to 15000 nM.
As for `O=C(NO)C(Oc1ccc(C(F)(F)F)cc1)c1ccccc1` (stereo not shown) [Compound 7-44, N-hydroxy-2-phenyl-2-(4-(trifluoromethyl)phenoxy)acetamide], the figure is 1000 to 15000 nM.

Values taken from patent US9096565B2, “Inhibitors of histone deacetylase” (MethylGene Inc., priority 2007, dated 2015).
